Test results reported in patent US20170129911A1, “COMPLEXES COMPRISING A PLATINUM COMPOUND AND AN IMMUNE CHECKPOINT INHIBITOR AND RELATED METHODS” (Massachusetts Institute of Technology, priority 2015, published 2017).

Columns and labels:
[1] = reported values used for comparison with human blood stability; cited from earlier work
[2] = system: A2780/CP70 human ovarian cancer cells; test: Cytotoxicity MTT assay, A2780/CP70; format: cell-based; details: A2780/CP70, MTT, 72 h
Description: (§1) Ovarian carcinoma cells, NIH:OVCAR3, A2780, A2780/CP70, and SKOV3 were purchased from the American Type Culture Collection (ATCC, Rockville Md.). Peripheral blood mononuclear cells (PBMCs) of two different donors were obtained from Zen Bio Inc. (Research Triangle, NC). Cancer cell lines were maintained in Roswell Park Memorial Institute (RPMI) medium (glutamine-free supplemented with 10% fetal bovine serum, Atlanta Biologics, Atlanta Ga.) and 1% penicillin/streptomycin. PBMCs were thawed in specialized medium (10% […], 40% RPMI and 50% FBS) and subsequently cultured in RPMI containing 20% FBS. For T-cell proliferation experiments, PBMCs were stimulated by the addition of phytohemagglutinin (PHA-P). All cells were grown at 310 K in a humidified atmosphere containing 5% CO2. D-1-methyltryptophan, L-tryptophan and L-kynurenine were purchased from Sigma Aldrich.
The colorimetric MTT assay was used to determine the toxicity of 1, 2, and cisplatin. Cells (2×10^3) were seeded in each well of a 96-well plate. […] Cisplatin was prepared as a 5 mM solution in PBS and diluted using media. 1, 2 and C16—Pt-Suc-NHC2H4OH were prepared as 10 mM solution in DMSO and diluted using media. The final volume amount of DMSO in each well was 0.5%, and which was present in the untreated control as well. Cells co-incubated with cisplatin and (D)-1-MT were first pre-treated with 1 mM (D)-1-MT. […] The RPMI/MTT, mixture was aspirated and 100 μL of DMSO was added to dissolve the resulting purple formazan crystals. The absorbance of the solution wells was read at 570 and 650 nm. Absorbance values were normalized to DMSO-containing control wells and plotted as concentration of test compound versus % cell viability. IC50 values were interpolated from the resulting dose dependent curves. The reported IC50 values are the average of at least three independent experiments, each of which consisted of six replicates per concentration level.

[3] = system: SKOV3 human ovarian cancer cells; test: Cytotoxicity MTT assay, SKOV3; format: cell-based
Description: as §1
(§2) The colorimetric MTT assay was used to determine the toxicity of 1, 2, and cisplatin. Cells (2×10^3) were seeded in each well of a 96-well plate. […] Cisplatin was prepared as a 5 mM solution in PBS and diluted using media. 1, 2 and C16—Pt-Suc-NHC2H4OH were prepared as 10 mM solution in DMSO and diluted using media. […] The absorbance of the solution wells was read at 570 and 650 nm. Absorbance values were normalized to DMSO-containing control wells and plotted as concentration of test compound versus % cell viability. […]

[4] = system: NIH:OVCAR3 human ovarian cancer cells; test: Cytotoxicity MTT assay, NIH:OVCAR3; format: cell-based
Description: as §1, §2

[5] = system: A2780 human ovarian cancer cells; test: Cytotoxicity MTT assay, A2780; format: cell-based; details: 72 h
Description: as §1, §2

genomic DNA = test: DNA platination experiments; format: cell-based, human; details: SKOV3, 10 μM, 17 h
Procedure: To gain further insight into the mode of action was studied of 1 and 2, the subcellular distribution of platinum. SKOV3 cells were incubated with the drug candidates (5 μM) for 17 h, using cisplatin as a control. The platinum content was measured by using GFAAS.
These cells were then treated with the compounds (10 μM) in fresh medium (9 mL) and subsequently incubated for 17 h at 37° C. The medium was aspirated and the cells were washed with PBS (3×8 mL), harvested by trypsinization (1 mL), and washed with 2 mL of PBS. The cell suspension was centrifuged at 2000 rpm for 5 min at 4° C. The cell pellet was suspended in DNAzol (1 mL, genomic DNA isolation reagent,). The DNA was precipitated with pure ethanol (0.5 mL), washed with 75% ethanol (0.75 mL×3), and re-dissolved in 500 μL of 8 mM NaOH. The DNA concentration was determined by UV-Vis spectroscopy and the platinum content was quantified by GFAAS. All experiments were carried out in triplicate.

SKOV3 cells = test: Cell cycle analysis by flow cytometry (DNA content)
human IDO in SKOV3 cells = test: Immunoblotting and qRT-PCR of IDO expression in SKOV3 cells; format: cell-based
Procedure: Total RNA was isolated with the Qiagen RNAeasy RNA isolation kit (Hilden, Germany) and cDNA was synthesized with the Applied Biosystems reverse-transcription-kit (Foster City, Calif., USA). qRT-PCR was performed in a Light cycler 480 II thermo cycler with SYBR Green PCR Mastermix (Roche). All primers were separated by at least one intron on the genomic DNA to exclude its amplification. PCR reactions were checked by including no-RT controls, by omission of templates, and by melting curves. Standard curves were generated for each gene. Relative quantification of gene expression was determined by comparison of threshold values. All samples were analyzed in duplicate at two different dilutions. All results were normalized to GAPDH.
Cells were washed with PBS, scraped into SDS-PAGE loading buffer (64 mM Tris-HCl (pH 6.8)/9.6% glycerol/2% SDS/5% β-mercaptoethanol/0.01% Bromophenol Blue), and incubated at 95° C. for 10 min. […] Membranes were blocked in 5% (w/v) bovine serum albumin in PBST (PBS/0.1% Tween 20) and incubated with the appropriate primary antibodies (Cell Signalling Technology and Santa Cruz). After incubation with horseradish peroxidase-conjugated secondary antibodies (Cell Signalling Technology), 1:1000, immuno complexes were detected with the ECL detection reagent (BioRad) and analyzed using UVP biospectrum imaging system fitted with a chemiluminescence filter.

[6] = Whole human blood stability test; format: in vitro ADME
Procedure: To a volume of 0.8 mL fresh whole human blood (Innovative Research, Novi, Mich.) was added 24 μL of a DMSO solution of 2 (2.0 mM), resulting in a final concentration of 60 μM. After 5 sec of vortexing, a 100 μL aliquot of the blood sample (0 h time point) was immediately transferred to a new tube containing 300 μL of octanol, and the remaining […] of blood was incubated at 37° C. with rotation (1100 rpm). The blood-octanol mixture was vortexed for 2 min at R.T. and then centrifuged to separate the phases. The isolated octanol extract was diluted with methanol for GFAAS measurement. At varying time points (1 h, 2 h, 3 h, 5 h, and 7 h), a 100 μL aliquot was removed from the incubating blood and extracted as described above. For the 7 h sample, analytical HPLC was employed to confirm the integrity of the Pt compound. A standard of 2 and an octanol extract from blank whole human blood were used for comparison.

[7] = Tolerability/toxicity in mice; format: in vivo
[8] = Water-octanol partition coefficient (Log P), shake-flask method and GFAAS; details: octanol/PBS
[9] = system: HCT 116 P53−/− colorectal cell line; test: MTT anticancer activity, HCT116 p53 −/−; format: cell-based; details: 48 h
Procedure: (§3) An MTT assay was run to measure the compounds anti cancer activity. The two colorectal cell lines HCT 116 P53+/+ and HCT 116 P53−/− were plated on 96 well plates. After adhesion to the plate, each individual compound was added to three rows, each consisting of 8 wells with a 3 fold dilution in concentration per well beginning at 25 μM. After 48 hours of incubation, the MTT reagent was added to the plates, which were then incubated for another 4 hours. The well contents were then dissolved in 200 μL of DMSO, and the plates were read for UV absorption at 570 nm and 650 nm. The collected data was then analyzed to produce the sigmoidal curves, which were then used to interpolate the IC50 values of each compounds. (See Table 3).

[10] = system: HCT 116 P53+/+ colorectal cell line; test: MTT anticancer activity, HCT116 p53 +/+; format: cell-based; details: 48 h
Procedure: as §3

Compound: [cis-Pt(NH3)2Cl2] [Cisplatin]
- t1/2 (reported) [1]: 21.6 min
- IC50 [2]: 10.4 ± 0.6 µM
- IC50 ([3]; 72 h): 3.7 ± 0.28 µM
- IC50 ([4]; 72 h): 4.1 ± 0.2 µM
- IC50 [5]: 0.7 ± 0.2 µM
- DNA platination (genomic DNA): 409±54 Pt adducts/10^4 nucleotides
- cell cycle arrest phase (SKOV3 cells): G2/M arrest

Compound: CCCCCCCCCCCCCCCCNC(=O)[O][Pt]([NH2])([NH2])([Cl])([Cl])[O]C(=O)CCC(=O)O [C16—Pt-Suc, reference compound]
- IDO protein expression (IDO inhibition) (human IDO in SKOV3 cells; immunoblotting and qRT-PCR): did not show IDO inhibition

Compound: Cn1cc(C[C@@H](N)C(=O)[O][Pt]([NH2])([NH2])([Cl])([Cl])[O]C(=O)[C@H](N)Cc2cn(C)c3ccccc23)c2ccccc21 (mixture of isomers) [Compound 1, cis,cis,trans-[Pt(NH3)2Cl2(O2C-D-1-MT)2]]
- logP at 3 h (physchem): -0.21 ± 0.08
- stability in blood [6]: stable in blood
- concentration at which IDO protein expression is blocked (human IDO in SKOV3 cells; immunoblotting): 100 µM
- toxicity / tolerance in mice [7]: low toxicity in mice

Compound: CC(=O)[O][Pt]([NH2])([Cl])([Cl])([NH]C1CCCCC1)[O]C(C)=O [satraplatin]
- t1/2 (reported) [1]: 6 min

Compound: Cn1cc(C[C@@H](N)C(=O)O)c2ccccc21 [(D)-1-MT, D-1-methyltryptophan]
- IC50 ([2]; Homo sapiens): 1040 ± 63.9 µM
- IC50 ([3]; Homo sapiens, SK-OV-3, 72 h): 1918 ± 8.4 µM
- IC50 ([4]; Homo sapiens, OVCAR-3, 72 h): 1200 ± 80 µM
- IC50 ([5]; Homo sapiens): 833 ± 7.53 µM
- logP at 3 h [8]: -2.98 ± 0.15

Compound: O=C(O)C(=O)O.[NH-][C@@H]1CCCC[C@H]1[NH-].[Pt+2] [Oxaliplatin]
- IC50 [9]: 6.55 ± 1.78 µM
- IC50 [10]: 1320 ± 1480 nM
